Assay: xn = mol fraction of the nth substance listed

CCCCCCCCCCCCCCCC[N+](C)(C)C.[Br-] + O=C[C@H](O)[C@@H](O)[C@H](O)[C@H](O)CO + O
viscosity [mPa·s], 100 kPa
Conditions | 298.15 K | 308.15 K | 318.15 K
x2 = 0, x1 = 7.21e-06 | 0.896 | 0.742 | 0.617
x2 = 0, x1 = 1.442e-05 | 0.898 | 0.744 | 0.617
x2 = 0, x1 = 2.162e-05 | 0.9 | 0.745 | 0.617
x2 = 0.0008068, x1 = 7.2e-06 | 0.918 | 0.76 | –
x2 = 0.000976, x1 = 1.44e-05 | 0.926 | – | 0.635
x2 = 0.0009851, x1 = 2.16e-05 | – | 0.768 | 0.636
x2 = 0.00106, x1 = 7.2e-06 | – | – | 0.636
x2 = 0.001255, x1 = 2.16e-05 | – | 0.774 | 0.641
x2 = 0.001314, x1 = 1.44e-05 | – | 0.774 | –
x2 = 0.001569, x1 = 7.2e-06 | 0.939 | 0.777 | 0.645
x2 = 0.001577, x1 = 2.159e-05 | 0.946 | 0.782 | 0.647
x2 = 0.001582, x1 = 1.439e-05 | 0.943 | – | 0.647
x2 = 0.001962, x1 = 7.19e-06 | 0.949 | – | –
x2 = 0.001965, x1 = 2.158e-05 | 0.957 | 0.791 | 0.655
x2 = 0.00197, x1 = 1.439e-05 | 0.955 | – | 0.654
x2 = 0.002321, x1 = 7.19e-06 | – | 0.793 | 0.659
x2 = 0.00235, x1 = 1.438e-05 | – | 0.798 | –
x2 = 0.002365, x1 = 2.157e-05 | 0.968 | 0.8 | 0.662
x2 = 0.002661, x1 = 1.438e-05 | 0.974 | 0.805 | 0.667
x2 = 0.002693, x1 = 2.157e-05 | 0.978 | 0.808 | 0.669
x2 = 0.0027, x1 = 7.19e-06 | 0.969 | 0.802 | –

CCCCCCCCCCCCCCCC[N+](C)(C)C.[Br-] + OC[C@H]1O[C@H](O[C@H]2[C@H](O)[C@@H](O)C(O)O[C@@H]2CO)[C@H](O)[C@@H](O)[C@@H]1O + O
viscosity [mPa·s], 100 kPa
Conditions | 298.15 K | 308.15 K | 318.15 K
x1 = 7.21e-06, x2 = 0 | 0.896 | 0.742 | 0.617
x1 = 1.442e-05, x2 = 0 | 0.898 | 0.744 | 0.617
x1 = 2.162e-05, x2 = 0 | 0.9 | 0.745 | 0.617

C[N+](C)(C)CCO.O=S(=O)([N-]S(=O)(=O)C(F)(F)F)C(F)(F)F + OCCO
100 kPa, x1 = 0.14
Conditions | electrical conductivity [S/m] | viscosity [mPa·s]
303 K | 0.381 | 17.9
323 K | 0.73 | 8.85

Cc1ccccc1 + CCCC[N+]1(C)CCCC1.O=S(=O)([N-]S(=O)(=O)C(F)(F)F)C(F)(F)F
Conditions | viscosity [mPa·s]
308.15 K, 100 kPa, x1 = 1 | 0.509

C[N+]1(CCOCCOCCOCCOCC[N+]2(C)CCCC2)CCCC1.N#C[N-]C#N.N#C[N-]C#N + CC[n+]1ccn(C)c1.N#C[N-]C#N + O=S(=O)([N-]S(=O)(=O)C(F)(F)F)C(F)(F)F.[Li+]
100 kPa, x1 = 0.2352, x2 = 0.6725
Conditions | electrical conductivity [S/m]
298 K | 0.37
303 K | 0.435
313 K | 0.646
323 K | 0.941
333 K | 1.2
343 K | 1.51

CCCCCC[n+]1ccn(C)c1.N#C[S-] + [Br-].[Li+] + CN1CCCC1=O
298.15 K, 101 kPa
Conditions | viscosity [mPa·s]
x1 = 0.001485, x2 = 0.05195 | 3.247
x1 = 0.00149, x2 = 0.02731 | 2.398
x1 = 0.001549, x2 = 0.07614 | 4.405
x1 = 0.003034, x2 = 0.02727 | 2.411
x1 = 0.003327, x2 = 0.07601 | 4.433
x1 = 0.003386, x2 = 0.05185 | 3.276
x1 = 0.004842, x2 = 0.05177 | 3.304
x1 = 0.004935, x2 = 0.02722 | 2.44
x1 = 0.004954, x2 = 0.07588 | 4.462
x1 = 0.005883, x2 = 0.02719 | 2.46
x1 = 0.006254, x2 = 0.0517 | 3.332
x1 = 0.006429, x2 = 0.07577 | 4.49
x1 = 0.007608, x2 = 0.02715 | 2.485
x1 = 0.007678, x2 = 0.07567 | 4.518
x1 = 0.007769, x2 = 0.05162 | 3.36
x1 = 0.009204, x2 = 0.07556 | 4.575
x1 = 0.009231, x2 = 0.05154 | 3.388
x1 = 0.009463, x2 = 0.0271 | 2.489
x1 = 0.009859, x2 = 0.05151 | 3.416
x1 = 0.01038, x2 = 0.02707 | 2.534
x1 = 0.01063, x2 = 0.07545 | 4.603
x1 = 0.01211, x2 = 0.02702 | 2.541
x1 = 0.01221, x2 = 0.07533 | 4.631
x1 = 0.01242, x2 = 0.05138 | 3.444

CCCCCC(=O)O.CCCCCC(=O)[O-].CC[NH+](CC)CCO + CCCC[n+]1ccn(C)c1.COP(=O)([O-])OC
101 kPa
Conditions | viscosity [mPa·s]
278.15 K, x1 = 0.2213 | 768
278.15 K, x1 = 0.6088 | 295.3
283.15 K, x1 = 0.0684 | 1280
283.15 K, x1 = 0.4995 | 242.5
283.15 K, x1 = 0.7258 | 185.3
288.15 K, x1 = 0.2213 | 362
288.15 K, x1 = 0.3088 | 259.7
288.15 K, x1 = 1 | 100.1
293.15 K, x1 = 0.4995 | 130.7
293.15 K, x1 = 0.8535 | 90.5
298.15 K, x1 = 0.2213 | 190.1
298.15 K, x1 = 0.3088 | 140.8
303.15 K, x1 = 0.2213 | 142.4
303.15 K, x1 = 0.6088 | 68.7
303.15 K, x1 = 1 | 47.5
308.15 K, x1 = 0.1429 | 147.9
313.15 K, x1 = 0.0684 | 157
313.15 K, x1 = 0.3088 | 65.2
318.15 K, x1 = 0.3966 | 43.87
318.15 K, x1 = 0.8535 | 29.04
323.15 K, x1 = 0.3966 | 35.8
328.15 K, x1 = 0.4995 | 26.14
328.15 K, x1 = 1 | 17.75
338.15 K, x1 = 0.0684 | 48.21
338.15 K, x1 = 0.2213 | 30.03
338.15 K, x1 = 1 | 12.81
343.15 K, x1 = 0.0684 | 39.73
343.15 K, x1 = 0.2213 | 25.3
343.15 K, x1 = 0.3088 | 20.61
348.15 K, x1 = 1 | 9.52
353.15 K, x1 = 0.2213 | 18.5
353.15 K, x1 = 0.4995 | 11.83
353.15 K, x1 = 0.7258 | 10.11
353.15 K, x1 = 1 | 8.28
358.15 K, x1 = 0.2213 | 16.02
358.15 K, x1 = 1 | 7.24
368.15 K, x1 = 0.3966 | 9.02
373.15 K, x1 = 0.2213 | 10.88

CCCCCn1cc[n+](CCCCC)c1.O=S(=O)([N-]S(=O)(=O)C(F)(F)F)C(F)(F)F + O
100 kPa, x2 = 0.1575
Conditions | viscosity [mPa·s]
313.15 K | 35.17
338.15 K | 15.44
358.15 K | 9.31

CC[n+]1ccn(C)c1.N#C[S-] + CCOS(=O)(=O)[O-].CC[n+]1ccn(C)c1
100 kPa
Conditions | electrical conductivity [S/m] | viscosity [mPa·s]
298.15 K, x1 = 0.67 | 1.16 | 43.5
308.15 K, x1 = 0.199 | 0.688 | 61.2
313.15 K, x1 = 0.429 | 1.19 | 43.1
318.15 K, x1 = 0.9505 | 3.6 | 15.57
323.15 K, x1 = 0.899 | 3.66 | 13.3
328.15 K, x1 = 0.429 | – | 22.05
333.15 K, x1 = 0.32 | – | 22.93
338.15 K, x1 = 0.899 | – | 9.45
343.15 K, x1 = 0.32 | – | 17.43
343.15 K, x1 = 0.429 | – | 14.75
348.15 K, x1 = 0.9505 | – | 7.21

Source: the CheMixHub ionic liquid set
